{"source": "paper PMC11995724", "about": "“Antibiotic target discovery by integrated phenotypic and activity-based profiling of electrophilic fragments” (Cell chemical biology, 2025)"}
{"assay": "in vitro", "settings": "human, hek293t cells", "units": {"viability at 48 h, 25 µM": "%"}, "description": "Mammalian cytotoxicity measurement was performed using Cell Titer-Glo 2.0 Cell Viability Assay (Promega, G9243) according to the manufacturer protocol. In brief, mammalian cells were seeded into 384-well white plates (Greiner, 781080) and incubated at 37°C for one day. Compounds from the Cys-Library were dispensed into the assay plate using epMotion 96. The plates were then incubated at 37°C for two days. An equal volume of Cell Titer-Glo 2.0 reagent was added into each well of the assay plate using epMotion 96 and incubated at 22°C for 10 min, followed by luminescence measurement using a Cytation 5 plate reader (BioTek)."}
{"molecule": "C=CC(=O)N1CCC(C(=O)NC2CCc3ncnn3C2)CC1", "note": "(centres unmarked) [2-P20, 1-(prop-2-enoyl)-N-{5H,6H,7H,8H-[1,2,4]triazolo[1,5-a]pyridin-6-yl}piperidine-4-carboxamide]", "viability at 48 h, 25 µM": 98}
{"molecule": "C=CC(=O)NCc1ncc(C)o1", "note": "[2-P21, N-[(5-methyl-1,3-oxazol-2-yl)methyl]prop-2-enamide]", "viability at 48 h, 25 µM": 48.8}
{"molecule": "C=CC(=O)N(C)CC(=O)NC1CCCN(c2ccc(F)cc2F)C1=O", "note": "(centres unmarked) [2-P22, N-({[1-(2,4-difluorophenyl)-2-oxopiperidin-3-yl]carbamoyl}methyl)-N-methylprop-2-enamide]", "viability at 48 h, 25 µM": 24.4}
{"molecule": "C=CC(=O)NCC(C)(C)c1coc(-c2ccccc2)n1", "note": "[3-A03, N-[2-methyl-2-(2-phenyl-1,3-oxazol-4-yl)propyl]prop-2-enamide]", "viability at 48 h, 25 µM": 45.6}
{"molecule": "C=CC(=O)N(C)CC(=O)N1CCn2cc(C(F)(F)F)nc2C1", "note": "[3-A04, N-methyl-N-{2-oxo-2-[2-(trifluoromethyl)-5H,6H,7H,8H-imidazo[1,2-a]pyrazin-7-yl]ethyl}prop-2-enamide]", "viability at 48 h, 25 µM": 60.6}
{"molecule": "C=CC(=O)NCC1CN(Cc2cccc(C)c2)CCO1", "note": "(centres unmarked) [3-A05, N-({4-[(3-methylphenyl)methyl]morpholin-2-yl}methyl)prop-2-enamide]", "viability at 48 h, 25 µM": 41}
{"molecule": "C=CC(=O)N(C)CC(=O)NC1CCC(N2CCCCC2=O)CC1", "note": "(centres unmarked) [3-A06, N-methyl-N-({[4-(2-oxopiperidin-1-yl)cyclohexyl]carbamoyl}methyl)prop-2-enamide]", "viability at 48 h, 25 µM": 62.1}
{"molecule": "C=CC(=O)N1CCc2[nH]cnc2C1c1ccnn1C", "note": "(centres unmarked) [3-A07, 1-[4-(1-methyl-1H-pyrazol-5-yl)-1H,4H,5H,6H,7H-imidazo[4,5-c]pyridin-5-yl]prop-2-en-1-one]", "viability at 48 h, 25 µM": 29.2}
{"molecule": "C=CC(=O)N(CC)CC(=O)N1CCC(c2nnc(C)o2)CC1", "note": "[3-A08, N-ethyl-N-{2-[4-(5-methyl-1,3,4-oxadiazol-2-yl)piperidin-1-yl]-2-oxoethyl}prop-2-enamide]", "viability at 48 h, 25 µM": 66.3}
{"molecule": "C=CC(=O)N1CCOC(c2ccc(F)c(C)c2)C1", "note": "(centres unmarked) [3-A09, 1-[2-(4-fluoro-3-methylphenyl)morpholin-4-yl]prop-2-en-1-one]", "viability at 48 h, 25 µM": 38.4}
{"molecule": "C=CC(=O)NC1CCS(=O)(=O)C(C)C1", "note": "(centres unmarked) [3-A10, N-(2-methyl-1,1-dioxo-1lambda6-thian-4-yl)prop-2-enamide]", "viability at 48 h, 25 µM": 68.8}
{"molecule": "C=CC(=O)N1CCC(Cc2nc(CC)no2)CC1", "note": "[3-A11, 1-{4-[(3-ethyl-1,2,4-oxadiazol-5-yl)methyl]piperidin-1-yl}prop-2-en-1-one]", "viability at 48 h, 25 µM": 60.7}
{"molecule": "C=CC(=O)N(C)CC(=O)NC1CCCN(c2cc(C)nc(C)n2)C1", "note": "(centres unmarked) [3-A12, N-({[1-(2,6-dimethylpyrimidin-4-yl)piperidin-3-yl]carbamoyl}methyl)-N-methylprop-2-enamide]", "viability at 48 h, 25 µM": 74.4}
{"molecule": "C=CC(=O)N1CCCC(c2nc(N(C)C)no2)C1", "note": "(centres unmarked) [3-A13, 1-{3-[3-(dimethylamino)-1,2,4-oxadiazol-5-yl]piperidin-1-yl}prop-2-en-1-one]", "viability at 48 h, 25 µM": 29.9}
{"molecule": "C=CC(=O)N(CC)CC(=O)N1CCc2[nH]nc(C(F)(F)F)c2C1", "note": "[3-A14, N-ethyl-N-{2-oxo-2-[3-(trifluoromethyl)-1H,4H,5H,6H,7H-pyrazolo[4,3-c]pyridin-5-yl]ethyl}prop-2-enamide]", "viability at 48 h, 25 µM": 64.2}
{"molecule": "C=CC(=O)NC(C)c1nnnn1C", "note": "(centres unmarked) [3-A15, N-[1-(1-methyl-1H-1,2,3,4-tetrazol-5-yl)ethyl]prop-2-enamide]", "viability at 48 h, 25 µM": 23.9}
{"molecule": "C=CC(=O)N1CCC(C(=O)NCC2COC3(CCCC3)O2)CC1", "note": "(centres unmarked) [3-A16, N-({1,4-dioxaspiro[4.4]nonan-2-yl}methyl)-1-(prop-2-enoyl)piperidine-4-carboxamide]", "viability at 48 h, 25 µM": 73.4}
{"molecule": "C=CC(=O)N1CCOC(c2nc(C)cs2)C1", "note": "(centres unmarked) [3-A17, 1-[2-(4-methyl-1,3-thiazol-2-yl)morpholin-4-yl]prop-2-en-1-one]", "viability at 48 h, 25 µM": 26.2}
{"molecule": "C=CC(=O)N1CCOC(CNC(=O)NC)C1", "note": "(centres unmarked) [3-A18, 3-methyl-1-{[4-(prop-2-enoyl)morpholin-2-yl]methyl}urea]", "viability at 48 h, 25 µM": 93.3}
{"molecule": "C=CC(=O)N1CCN(S(=O)(=O)c2ccc(C(C)(C)C)cc2)CC1", "note": "[3-A19, 1-[4-(4-tert-butylbenzenesulfonyl)piperazin-1-yl]prop-2-en-1-one]", "viability at 48 h, 25 µM": 24.5}
{"molecule": "C=CC(=O)NC(C)c1ccc(S(=O)(=O)N(C)C)cc1", "note": "(centres unmarked) [3-A20, N-{1-[4-(dimethylsulfamoyl)phenyl]ethyl}prop-2-enamide]", "viability at 48 h, 25 µM": 51.5}
{"molecule": "C=CC(=O)N1CCCN(C(=O)c2ccc(OC)cc2)CC1", "note": "[3-A21, 1-[4-(4-methoxybenzoyl)-1,4-diazepan-1-yl]prop-2-en-1-one]", "viability at 48 h, 25 µM": 53.5}
{"molecule": "C=CC(=O)N(C)C[C@@H]1CCC(=O)N1", "note": "[3-A22, N-methyl-N-{[(2S)-5-oxopyrrolidin-2-yl]methyl}prop-2-enamide]", "viability at 48 h, 25 µM": 150}
{"molecule": "C=CC(=O)N1CCC(C(=O)NCc2nccn2-c2ccccc2)CC1", "note": "[3-B03, N-[(1-phenyl-1H-imidazol-2-yl)methyl]-1-(prop-2-enoyl)piperidine-4-carboxamide]", "viability at 48 h, 25 µM": 86.5}
{"molecule": "C=CC(=O)N1CC(n2nc(C)cc2C)C1", "note": "[3-B04, 1-[3-(3,5-dimethyl-1H-pyrazol-1-yl)azetidin-1-yl]prop-2-en-1-one]", "viability at 48 h, 25 µM": 77.4}
{"molecule": "C=CC(=O)NCc1ccc(C(=O)N2CCOC3(CCCC3)C2)cc1", "note": "[3-B05, N-[(4-{6-oxa-9-azaspiro[4.5]decane-9-carbonyl}phenyl)methyl]prop-2-enamide]", "viability at 48 h, 25 µM": 69.9}
{"molecule": "C=CC(=O)Nc1ccc(OC)c(COC)c1", "note": "[3-B06, N-[4-methoxy-3-(methoxymethyl)phenyl]prop-2-enamide]", "viability at 48 h, 25 µM": 89.7}
{"molecule": "C=CC(=O)N1CCC(C(=O)Nc2ccn(Cc3ccccn3)n2)CC1", "note": "[3-B07, 1-(prop-2-enoyl)-N-{1-[(pyridin-2-yl)methyl]-1H-pyrazol-3-yl}piperidine-4-carboxamide]", "viability at 48 h, 25 µM": 53.3}
{"molecule": "C=CC(=O)Nc1ccc(C(=O)NC2CC(C)(C)OC2=O)cc1", "note": "(centres unmarked) [3-B08, N-(5,5-dimethyl-2-oxooxolan-3-yl)-4-(prop-2-enamido)benzamide]", "viability at 48 h, 25 µM": 82.4}
{"molecule": "C=CC(=O)NC1(C(N)=O)CCCC1C", "note": "(centres unmarked) [3-B09, 2-methyl-1-(prop-2-enamido)cyclopentane-1-carboxamide]", "viability at 48 h, 25 µM": 54.5}
{"molecule": "C=CC(=O)Nc1cn(CCC)cn1", "note": "[3-B10, N-(1-propyl-1H-imidazol-4-yl)prop-2-enamide]", "viability at 48 h, 25 µM": 91.1}
{"molecule": "C=CC(=O)N[C@H](C)c1cnnn1C", "note": "[3-B11, N-[(1R)-1-(1-methyl-1H-1,2,3-triazol-5-yl)ethyl]prop-2-enamide]", "viability at 48 h, 25 µM": 73.8}
{"molecule": "C=CC(=O)N1CCC(C(=O)NCc2nc(C)c(C)s2)CC1", "note": "[3-B12, N-[(4,5-dimethyl-1,3-thiazol-2-yl)methyl]-1-(prop-2-enoyl)piperidine-4-carboxamide]", "viability at 48 h, 25 µM": 87.5}
{"molecule": "C=CC(=O)NC(C)c1ccc(-n2ccnn2)cc1", "note": "(centres unmarked) [3-B13, N-{1-[4-(1H-1,2,3-triazol-1-yl)phenyl]ethyl}prop-2-enamide]", "viability at 48 h, 25 µM": 59.2}
{"molecule": "C=CC(=O)N1CCC(C(=O)N[C@@H]2C[C@H]2c2ccc(Cl)c(F)c2)CC1", "note": "[3-B14, N-[(1R,2S)-2-(4-chloro-3-fluorophenyl)cyclopropyl]-1-(prop-2-enoyl)piperidine-4-carboxamide]", "viability at 48 h, 25 µM": 78.3}
{"molecule": "C=CC(=O)Nc1ccc(C(=O)N2CCC(C(C)C)CC2)cc1", "note": "[3-B15, N-{4-[4-(propan-2-yl)piperidine-1-carbonyl]phenyl}prop-2-enamide]", "viability at 48 h, 25 µM": 27.5}
{"molecule": "C=CC(=O)N1CCn2c(cnc2C(F)(F)F)C1", "note": "[3-B16, 1-[3-(trifluoromethyl)-5H,6H,7H,8H-imidazo[1,5-a]pyrazin-7-yl]prop-2-en-1-one]", "viability at 48 h, 25 µM": 81.8}
{"molecule": "C=CC(=O)NCC1CCN(c2ccccc2)C1", "note": "(centres unmarked) [3-B17, N-[(1-phenylpyrrolidin-3-yl)methyl]prop-2-enamide]", "viability at 48 h, 25 µM": 66.8}
{"molecule": "C=CC(=O)NCc1ccnc(-n2cncn2)c1", "note": "[3-B18, N-{[2-(1H-1,2,4-triazol-1-yl)pyridin-4-yl]methyl}prop-2-enamide]", "viability at 48 h, 25 µM": 92.7}
{"molecule": "C=CC(=O)NCc1cc(C(F)(F)C(F)(F)F)on1", "note": "[3-B19, N-{[5-(1,1,2,2,2-pentafluoroethyl)-1,2-oxazol-3-yl]methyl}prop-2-enamide]", "viability at 48 h, 25 µM": 48.4}
{"molecule": "C=CC(=O)NCc1noc2c1CCCC2", "note": "[3-B20, N-[(4,5,6,7-tetrahydro-1,2-benzoxazol-3-yl)methyl]prop-2-enamide]", "viability at 48 h, 25 µM": 74.4}
{"molecule": "C=CC(=O)NCCNC(=O)c1cc2ccccc2[nH]1", "note": "[3-B21, N-{2-[(1H-indol-2-yl)formamido]ethyl}prop-2-enamide]", "viability at 48 h, 25 µM": 63.1}
{"molecule": "C=CC(=O)N1CCc2nn(C(C)C)c(=O)cc2C1", "note": "[3-B22, 6-(prop-2-enoyl)-2-(propan-2-yl)-2H,3H,5H,6H,7H,8H-pyrido[4,3-c]pyridazin-3-one]", "viability at 48 h, 25 µM": 87.7}
{"molecule": "C=CC(=O)N1CCC(n2cnc3ccccc3c2=O)C1", "note": "(centres unmarked) [3-C03, 3-[1-(prop-2-enoyl)pyrrolidin-3-yl]-3,4-dihydroquinazolin-4-one]", "viability at 48 h, 25 µM": 63.6}
{"molecule": "C=CC(=O)N(C)CC(=O)N1CCc2cc(OC)c(OC)cc2C1C", "note": "(centres unmarked) [3-C04, N-[2-(6,7-dimethoxy-1-methyl-1,2,3,4-tetrahydroisoquinolin-2-yl)-2-oxoethyl]-N-methylprop-2-enamide]", "viability at 48 h, 25 µM": 84.6}
{"molecule": "C=CC(=O)NCc1nc(-c2ccccc2)oc1C", "note": "[3-C05, N-[(5-methyl-2-phenyl-1,3-oxazol-4-yl)methyl]prop-2-enamide]", "viability at 48 h, 25 µM": 50.4}
{"molecule": "C=CC(=O)N1CCC(C(=O)Nc2ccccc2NS(C)(=O)=O)CC1", "note": "[3-C06, N-(2-methanesulfonamidophenyl)-1-(prop-2-enoyl)piperidine-4-carboxamide]", "viability at 48 h, 25 µM": 82.7}
{"molecule": "C=CC(=O)N1CCC(C(=O)NC2CC2(C)C)CC1", "note": "(centres unmarked) [3-C07, N-(2,2-dimethylcyclopropyl)-1-(prop-2-enoyl)piperidine-4-carboxamide]", "viability at 48 h, 25 µM": 30.9}
{"molecule": "C=CC(=O)N1CCn2c(nnc2C2CCCC2)C1", "note": "[3-C09, 1-{3-cyclopentyl-5H,6H,7H,8H-[1,2,4]triazolo[4,3-a]pyrazin-7-yl}prop-2-en-1-one]", "viability at 48 h, 25 µM": 29.4}
{"molecule": "C=CC(=O)Nc1ccc(C(=O)NC2CCN(C(C)C)C2=O)cc1", "note": "(centres unmarked) [3-C10, N-[2-oxo-1-(propan-2-yl)pyrrolidin-3-yl]-4-(prop-2-enamido)benzamide]", "viability at 48 h, 25 µM": 60.6}
